Experimental data reported in ChEMBL document CHEMBL4507282, “Data for DCP probe BI-1950” (2021).

Key:
[1] = test system: Proto-oncogene tyrosine-protein kinase receptor Ret (Homo sapiens), P07949 [M918T]; conditions: Compound concentration 1000.0 nM
[2] = target: Macrophage colony-stimulating factor 1 receptor (Homo sapiens) (UniProt P07333); conditions: Compound concentration 1000.0 nM
[3] = target: Receptor-interacting serine/threonine-protein kinase 4 (Homo sapiens) (UniProt P57078); conditions: Compound concentration 1000.0 nM
[4] = target: Inhibitor of nuclear factor kappa-B kinase subunit beta (Homo sapiens) (UniProt O14920); conditions: Compound concentration 1000.0 nM
[5] = target: Ribosomal protein S6 kinase alpha-2 (Homo sapiens) (UniProt Q15349); conditions: Compound concentration 1000.0 nM
[6] = target: Focal adhesion kinase 1 (Homo sapiens) (UniProt Q05397); conditions: Compound concentration 1000.0 nM
Focal adhesion kinase 1 (Homo sapiens), sequence (Q05397 2-1052 limits assumed): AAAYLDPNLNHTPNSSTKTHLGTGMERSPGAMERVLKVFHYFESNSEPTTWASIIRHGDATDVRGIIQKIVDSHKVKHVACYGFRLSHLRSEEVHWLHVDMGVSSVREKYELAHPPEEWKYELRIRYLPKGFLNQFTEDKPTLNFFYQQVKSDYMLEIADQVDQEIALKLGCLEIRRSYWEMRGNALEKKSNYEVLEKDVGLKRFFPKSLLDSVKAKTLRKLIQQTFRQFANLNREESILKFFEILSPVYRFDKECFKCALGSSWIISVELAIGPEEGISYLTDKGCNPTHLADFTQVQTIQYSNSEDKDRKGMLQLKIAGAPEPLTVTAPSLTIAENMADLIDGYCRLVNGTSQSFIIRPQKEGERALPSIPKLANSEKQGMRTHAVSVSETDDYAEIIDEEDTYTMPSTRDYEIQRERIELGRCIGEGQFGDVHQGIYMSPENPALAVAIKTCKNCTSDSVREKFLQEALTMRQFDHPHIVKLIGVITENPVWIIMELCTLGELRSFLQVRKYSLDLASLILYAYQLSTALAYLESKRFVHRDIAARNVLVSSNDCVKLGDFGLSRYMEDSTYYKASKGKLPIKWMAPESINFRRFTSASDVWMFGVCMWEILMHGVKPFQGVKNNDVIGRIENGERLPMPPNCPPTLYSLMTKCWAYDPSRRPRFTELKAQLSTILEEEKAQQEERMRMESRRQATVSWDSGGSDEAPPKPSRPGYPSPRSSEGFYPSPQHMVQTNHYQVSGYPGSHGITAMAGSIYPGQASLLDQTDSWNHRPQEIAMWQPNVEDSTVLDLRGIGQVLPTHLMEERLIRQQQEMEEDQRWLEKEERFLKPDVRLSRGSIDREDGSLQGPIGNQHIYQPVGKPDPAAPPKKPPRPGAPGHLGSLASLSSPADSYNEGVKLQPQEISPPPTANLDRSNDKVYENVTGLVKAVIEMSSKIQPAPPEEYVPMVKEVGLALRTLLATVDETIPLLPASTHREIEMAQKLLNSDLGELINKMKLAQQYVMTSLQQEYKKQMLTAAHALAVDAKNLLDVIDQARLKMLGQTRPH

[7] = target: Ribosomal protein S6 kinase alpha-1 (Homo sapiens) (UniProt Q15418); conditions: Compound concentration 1000.0 nM
[8] = target: Dual specificity mitogen-activated protein kinase kinase 7 (Homo sapiens) (UniProt O14733); conditions: Compound concentration 1000.0 nM
[9] = target: Cyclin-dependent kinase 8 (Homo sapiens) (UniProt P49336); conditions: Compound concentration 1000.0 nM
Cyclin-dependent kinase 8 (Homo sapiens), sequence (P49336 whole entry): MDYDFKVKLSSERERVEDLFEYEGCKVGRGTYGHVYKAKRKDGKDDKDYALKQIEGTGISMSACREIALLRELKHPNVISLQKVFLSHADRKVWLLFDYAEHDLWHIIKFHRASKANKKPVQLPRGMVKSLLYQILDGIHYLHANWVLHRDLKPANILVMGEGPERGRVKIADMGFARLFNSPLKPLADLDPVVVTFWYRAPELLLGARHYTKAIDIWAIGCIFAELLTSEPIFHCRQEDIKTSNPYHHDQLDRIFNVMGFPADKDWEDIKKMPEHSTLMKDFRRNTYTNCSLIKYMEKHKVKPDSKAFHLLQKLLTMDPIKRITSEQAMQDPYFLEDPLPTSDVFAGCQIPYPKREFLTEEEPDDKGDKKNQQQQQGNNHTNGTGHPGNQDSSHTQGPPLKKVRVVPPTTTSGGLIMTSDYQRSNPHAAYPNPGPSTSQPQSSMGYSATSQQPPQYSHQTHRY

[10] = test system: Epidermal growth factor receptor (Homo sapiens), P00533 [UNDEFINED MUTATION]; conditions: Compound concentration 1000.0 nM
[11] = target: Histamine H1 receptor (Homo sapiens) (UniProt P35367); conditions: Compound concentration 10.0 uM
[12] = target: T1, 5-hydroxytryptamine receptor 3A (Homo sapiens) (UniProt P46098); conditions: Compound concentration 10.0 uM
T1 sequence (whole entry): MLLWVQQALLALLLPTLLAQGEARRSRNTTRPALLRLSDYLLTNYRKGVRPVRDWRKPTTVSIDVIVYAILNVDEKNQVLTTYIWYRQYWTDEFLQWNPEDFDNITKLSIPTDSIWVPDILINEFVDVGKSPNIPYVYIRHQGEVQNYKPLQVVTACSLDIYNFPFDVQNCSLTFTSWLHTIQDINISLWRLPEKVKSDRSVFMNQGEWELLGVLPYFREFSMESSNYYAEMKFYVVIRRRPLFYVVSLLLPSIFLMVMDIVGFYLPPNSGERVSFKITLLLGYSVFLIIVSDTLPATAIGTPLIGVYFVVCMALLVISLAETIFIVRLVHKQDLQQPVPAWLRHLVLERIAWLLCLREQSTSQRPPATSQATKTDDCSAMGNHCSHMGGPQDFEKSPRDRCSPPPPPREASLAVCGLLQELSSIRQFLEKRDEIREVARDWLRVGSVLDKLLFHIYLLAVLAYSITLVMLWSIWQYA

[13] = target: Dual specificity protein kinase CLK2 (Homo sapiens) (UniProt P49760); conditions: Compound concentration 1000.0 nM
Dual specificity protein kinase CLK2 (Homo sapiens), sequence (P49760 whole entry, looked up): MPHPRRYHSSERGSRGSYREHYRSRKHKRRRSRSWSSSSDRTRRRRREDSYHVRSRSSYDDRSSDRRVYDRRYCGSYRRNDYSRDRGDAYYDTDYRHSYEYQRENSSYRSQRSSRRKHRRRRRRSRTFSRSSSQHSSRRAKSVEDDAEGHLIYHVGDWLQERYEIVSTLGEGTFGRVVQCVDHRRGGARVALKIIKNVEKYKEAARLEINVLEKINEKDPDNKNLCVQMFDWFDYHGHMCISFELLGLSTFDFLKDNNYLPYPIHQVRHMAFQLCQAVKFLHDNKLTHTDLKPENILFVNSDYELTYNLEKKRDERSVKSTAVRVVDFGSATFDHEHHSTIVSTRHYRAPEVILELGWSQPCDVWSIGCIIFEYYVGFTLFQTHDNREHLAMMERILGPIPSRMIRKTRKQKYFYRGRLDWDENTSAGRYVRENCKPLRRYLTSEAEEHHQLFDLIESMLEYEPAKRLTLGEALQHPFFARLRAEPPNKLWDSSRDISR

[14] = target: RAC-gamma serine/threonine-protein kinase (Homo sapiens) (UniProt Q9Y243); conditions: Compound concentration 1000.0 nM
[15] = target: Serine/threonine-protein kinase TAO3 (Homo sapiens) (UniProt Q9H2K8); conditions: Compound concentration 1000.0 nM
[16] = target: Vascular endothelial growth factor receptor 1 (Homo sapiens) (UniProt P17948); conditions: Compound concentration 1000.0 nM
[17] = test system: Tyrosine-protein kinase ABL1 (Homo sapiens), P00519 [H396P]; conditions: Compound concentration 1000.0 nM
[18] = target: Protein kinase C delta type (Homo sapiens) (UniProt Q05655); conditions: Compound concentration 1000.0 nM
[19] = target: Mitogen-activated protein kinase 11 (Homo sapiens) (UniProt Q15759); conditions: Compound concentration 1000.0 nM
[20] = target: Serine/threonine-protein kinase WNK2 (Homo sapiens) (UniProt Q9Y3S1); conditions: Compound concentration 1000.0 nM
[21] = test system: Phosphatidylinositol 4,5-bisphosphate 3-kinase catalytic subunit alpha isoform (Homo sapiens), P42336 [M1043I]; conditions: Compound concentration 1000.0 nM
[22] = target: Microtubule-associated serine/threonine-protein kinase 1 (Homo sapiens) (UniProt Q9Y2H9); conditions: Compound concentration 1000.0 nM
[23] = target: Cyclin-dependent kinase 18 (Homo sapiens) (UniProt Q07002); conditions: Compound concentration 1000.0 nM
[24] = target: Cyclin-dependent kinase 16 (Homo sapiens) (UniProt Q00536); conditions: Compound concentration 1000.0 nM
[25] = target: Myotonin-protein kinase (Homo sapiens) (UniProt Q09013); conditions: Compound concentration 1000.0 nM
[26] = target: Calcium/calmodulin-dependent protein kinase type II subunit delta (Homo sapiens) (UniProt Q13557); conditions: Compound concentration 1000.0 nM
[27] = target: Serine/threonine-protein kinase PLK3 (Homo sapiens) (UniProt Q9H4B4); conditions: Compound concentration 1000.0 nM
[28] = target: Serine/threonine-protein kinase BRSK2 (Homo sapiens) (UniProt Q8IWQ3); conditions: Compound concentration 1000.0 nM
[29] = target: AP2-associated protein kinase 1 (Homo sapiens) (UniProt Q2M2I8); conditions: Compound concentration 1000.0 nM
[30] = target: Tyrosine-protein kinase Lck (Homo sapiens) (UniProt P06239); conditions: Compound concentration 1000.0 nM
[31] = target: Muscle, skeletal receptor tyrosine-protein kinase (Homo sapiens) (UniProt O15146); conditions: Compound concentration 1000.0 nM
[32] = target: Tyrosine-protein kinase JAK3 (Homo sapiens) (UniProt P52333); conditions: Compound concentration 1000.0 nM
[33] = target: Cyclin-dependent kinase 15 (Homo sapiens) (UniProt Q96Q40); conditions: Compound concentration 1000.0 nM
Cyclin-dependent kinase 15 (Homo sapiens), sequence (Q96Q40 whole entry, canonical isoform): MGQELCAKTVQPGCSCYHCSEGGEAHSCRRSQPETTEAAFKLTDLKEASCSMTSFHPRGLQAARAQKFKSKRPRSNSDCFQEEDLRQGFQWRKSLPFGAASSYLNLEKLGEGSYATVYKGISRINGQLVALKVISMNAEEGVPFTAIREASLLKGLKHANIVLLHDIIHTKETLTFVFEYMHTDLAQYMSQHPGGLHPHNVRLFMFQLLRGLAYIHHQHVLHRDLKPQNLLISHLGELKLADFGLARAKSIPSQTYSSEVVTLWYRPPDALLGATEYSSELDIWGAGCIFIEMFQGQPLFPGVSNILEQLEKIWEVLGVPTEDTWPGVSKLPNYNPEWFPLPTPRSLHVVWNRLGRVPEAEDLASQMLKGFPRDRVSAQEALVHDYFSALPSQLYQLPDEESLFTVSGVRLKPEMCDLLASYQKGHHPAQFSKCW

[34] = test system: Phosphatidylinositol 4,5-bisphosphate 3-kinase catalytic subunit alpha isoform (Homo sapiens), P42336 [H1047L]; conditions: Compound concentration 1000.0 nM
Phosphatidylinositol 4,5-bisphosphate 3-kinase catalytic subunit alpha isoform (Homo sapiens), P42336 [H1047L], sequence (P42336 whole entry H1047L, canonical isoform): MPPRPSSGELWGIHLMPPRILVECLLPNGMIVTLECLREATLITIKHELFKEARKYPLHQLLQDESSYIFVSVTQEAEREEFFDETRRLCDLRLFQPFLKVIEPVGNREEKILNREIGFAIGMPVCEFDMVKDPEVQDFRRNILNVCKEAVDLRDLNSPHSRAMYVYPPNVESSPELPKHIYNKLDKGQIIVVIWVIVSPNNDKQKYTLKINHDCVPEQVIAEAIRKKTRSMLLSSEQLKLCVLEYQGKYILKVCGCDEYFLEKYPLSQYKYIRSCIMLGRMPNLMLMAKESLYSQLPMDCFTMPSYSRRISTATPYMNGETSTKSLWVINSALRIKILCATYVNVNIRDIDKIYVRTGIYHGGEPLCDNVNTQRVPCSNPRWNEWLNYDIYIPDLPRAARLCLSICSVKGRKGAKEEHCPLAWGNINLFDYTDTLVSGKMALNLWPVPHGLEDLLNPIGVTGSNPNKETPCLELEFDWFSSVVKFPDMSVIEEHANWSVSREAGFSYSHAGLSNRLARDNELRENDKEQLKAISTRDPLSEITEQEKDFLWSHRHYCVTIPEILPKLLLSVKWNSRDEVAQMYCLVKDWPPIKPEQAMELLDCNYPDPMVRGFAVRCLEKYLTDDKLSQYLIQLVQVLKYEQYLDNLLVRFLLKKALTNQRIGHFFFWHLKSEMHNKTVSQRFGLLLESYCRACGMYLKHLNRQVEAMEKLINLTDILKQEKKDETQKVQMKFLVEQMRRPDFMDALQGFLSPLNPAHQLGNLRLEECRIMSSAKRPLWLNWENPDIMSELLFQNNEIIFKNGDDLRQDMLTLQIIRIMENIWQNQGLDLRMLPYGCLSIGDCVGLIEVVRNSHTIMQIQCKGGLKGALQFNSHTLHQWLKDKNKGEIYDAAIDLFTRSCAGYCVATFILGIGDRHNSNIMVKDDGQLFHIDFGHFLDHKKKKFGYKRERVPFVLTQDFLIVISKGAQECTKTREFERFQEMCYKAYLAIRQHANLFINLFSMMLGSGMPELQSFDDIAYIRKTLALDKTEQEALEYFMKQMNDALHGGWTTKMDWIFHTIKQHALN

[35] = target: Glycogen synthase kinase-3 alpha (Homo sapiens) (UniProt P49840); conditions: Compound concentration 1000.0 nM
Glycogen synthase kinase-3 alpha (Homo sapiens), sequence (P49840 2-483 limits assumed): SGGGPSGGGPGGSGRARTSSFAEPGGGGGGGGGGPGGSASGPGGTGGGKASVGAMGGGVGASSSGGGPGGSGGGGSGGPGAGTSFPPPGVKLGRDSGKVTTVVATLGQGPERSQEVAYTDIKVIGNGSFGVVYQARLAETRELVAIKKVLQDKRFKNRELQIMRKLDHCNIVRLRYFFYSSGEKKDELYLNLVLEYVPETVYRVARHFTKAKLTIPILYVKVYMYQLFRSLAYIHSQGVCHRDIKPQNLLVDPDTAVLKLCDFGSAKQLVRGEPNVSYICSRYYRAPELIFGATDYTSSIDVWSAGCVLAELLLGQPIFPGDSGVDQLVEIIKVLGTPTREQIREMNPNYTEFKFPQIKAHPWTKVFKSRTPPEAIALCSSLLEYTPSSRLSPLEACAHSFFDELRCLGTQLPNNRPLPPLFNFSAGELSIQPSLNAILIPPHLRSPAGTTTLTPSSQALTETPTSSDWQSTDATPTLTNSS

[36] = target: Phosphatidylinositol 4,5-bisphosphate 3-kinase catalytic subunit gamma isoform (Homo sapiens) (UniProt P48736); conditions: Compound concentration 1000.0 nM
[37] = target: Interleukin-1 receptor-associated kinase 4 (Homo sapiens) (UniProt Q9NWZ3); conditions: Compound concentration 1000.0 nM
[38] = target: Serine/threonine-protein kinase Nek10 (Homo sapiens) (UniProt Q6ZWH5); conditions: Compound concentration 1000.0 nM

Macrophage colony-stimulating factor 1 receptor (Homo sapiens), sequence (P07333 whole entry): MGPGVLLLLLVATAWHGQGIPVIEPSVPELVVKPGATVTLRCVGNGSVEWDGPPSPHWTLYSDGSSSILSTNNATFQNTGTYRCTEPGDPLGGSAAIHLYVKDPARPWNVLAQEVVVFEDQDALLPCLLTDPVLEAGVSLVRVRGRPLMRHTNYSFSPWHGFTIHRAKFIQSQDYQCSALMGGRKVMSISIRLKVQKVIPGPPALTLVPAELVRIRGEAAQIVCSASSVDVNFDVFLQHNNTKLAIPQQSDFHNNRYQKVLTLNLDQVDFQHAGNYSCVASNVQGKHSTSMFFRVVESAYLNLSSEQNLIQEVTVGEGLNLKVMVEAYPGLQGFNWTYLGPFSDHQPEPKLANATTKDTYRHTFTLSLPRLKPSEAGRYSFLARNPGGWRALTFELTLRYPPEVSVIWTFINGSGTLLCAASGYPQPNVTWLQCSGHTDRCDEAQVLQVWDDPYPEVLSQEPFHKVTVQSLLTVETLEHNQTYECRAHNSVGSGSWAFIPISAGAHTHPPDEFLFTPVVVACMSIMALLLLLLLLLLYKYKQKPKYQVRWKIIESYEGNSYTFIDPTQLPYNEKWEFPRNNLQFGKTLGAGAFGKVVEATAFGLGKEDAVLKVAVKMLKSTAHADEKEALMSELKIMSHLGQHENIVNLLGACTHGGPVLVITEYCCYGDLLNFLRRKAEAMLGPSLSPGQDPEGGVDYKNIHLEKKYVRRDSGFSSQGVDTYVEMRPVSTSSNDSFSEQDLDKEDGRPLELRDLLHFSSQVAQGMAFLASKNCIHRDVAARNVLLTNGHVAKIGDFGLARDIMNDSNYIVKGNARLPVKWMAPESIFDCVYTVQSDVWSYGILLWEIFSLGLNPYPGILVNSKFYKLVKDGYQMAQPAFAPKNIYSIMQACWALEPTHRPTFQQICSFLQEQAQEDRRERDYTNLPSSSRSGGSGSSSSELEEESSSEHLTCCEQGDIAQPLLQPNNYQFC

C[C@@]1(Cc2ccc(C#N)cc2)C(=O)N(c2cc(Cl)cc(Cl)c2)c2ncc(C(=O)NC3(c4nc(C5CCC5)no4)CC3)n21 [BI 9446]
inactive: residual activity [1] 100% | residual activity [2] 100% | residual activity [3] 100% | residual activity [4] 100% | residual activity [5] 100% | residual activity [6] 100% | residual activity [7] 100% | residual activity [8] 100% | residual activity [9] 100% | residual activity [10] 100% | inhibition [11] 10.3% | inhibition [12] 17.9% | residual activity [13] 100% | residual activity [14] 100% | residual activity [15] 91% | residual activity [16] 99% | residual activity [17] 100% | residual activity [18] 100% | residual activity [19] 100% | residual activity [20] 100% | residual activity [21] 100% | residual activity [22] 100% | residual activity [23] 100% | residual activity [24] 97% | residual activity [25] 100% | residual activity [26] 100% | residual activity [27] 100% | residual activity [28] 100% | residual activity [29] 100% | residual activity [30] 100% | residual activity [31] 100% | residual activity [32] 100% | residual activity [33] 97% | residual activity [34] 96% | residual activity [35] 100% | residual activity [36] 95% | residual activity [37] 100% | residual activity [38] 100%

C[C@H](NC(=O)c1cnc2n1[C@](C)(Cc1ccc(C#N)cc1)C(=O)N2c1cc(Cl)c(F)c(Cl)c1)C(=O)NC1(c2ccccn2)CC1 [BI 1950]
inactive: residual activity [1] 100% | residual activity [2] 100% | residual activity [3] 100% | residual activity [4] 90% | residual activity [5] 100% | residual activity [6] 100% | residual activity [7] 100% | residual activity [8] 100% | residual activity [9] 100% | residual activity [10] 100% | inhibition [11] 3.2% | inhibition [12] -2.51% | residual activity [13] 97% | residual activity [14] 60% | residual activity [15] 88% | residual activity [16] 100% | residual activity [17] 83% | residual activity [18] 100% | residual activity [19] 100% | residual activity [20] 100% | residual activity [21] 100% | residual activity [22] 100% | residual activity [23] 100% | residual activity [24] 100% | residual activity [25] 67% | residual activity [26] 100% | residual activity [27] 81% | residual activity [28] 100% | residual activity [29] 100% | residual activity [30] 100% | residual activity [31] 100% | residual activity [32] 100% | residual activity [33] 100% | residual activity [34] 81% | residual activity [35] 100% | residual activity [36] 86% | residual activity [37] 100% | residual activity [38] 100%
